Holding throughout (type): in vivo
Data set [1] concerns transplanted Oryza sativa. Kind of data set: Test Example 1: effect on crop, application before weed generation in submerged conditions. The conditions noted are these: Seventeenth Table. The source says:
(§1) [Test Example 1] Herbicidal Activity Test by Application Before Weed Generation in Submerged Conditions After alluvial soil was placed into 1/10000 are of Wagner pot, water was poured and mixed to form a submerged condition having a water depth of 4 cm. Seeds of Echinochloa oryzacola Vasing., Scirpus juncoides, and Monochoria vaginalis were sowed in a mixed manner in the above pot and thereafter 2.5 leaf stage Oryza sativa seedling was transplanted. On the day of sowing seeds, the emulsion agent containing the compound of the present invention prepared in accordance with Formulation Example 2 was diluted with water so as to be a predetermined herbicide amount and the diluted compound was applied to the surface of the water. The pot was placed in a greenhouse of 25° C. to 30° C. to grow plant. Three weeks after the herbicide application, effects on each plant were investigated in accordance with the following criteria. Criteria 5 Herbicidal ratio of 90% or more (almost completely withered) 4 Herbicidal ratio of 70% or more and less than 90% 3 Herbicidal ratio of 40% or more and less than 70% 2 Herbicidal ratio of 20% or more and less than 40% 1 Herbicidal ratio of 5% or more and less than 20% 0 Herbicidal ratio of 5% or less (almost no effect) A: Echinochloa oryzicola Vasing., B: Scirpus juncoides, C: Monochoria vaginalis, D: Leptochloa chinensis, E: Cyperus difformis, F: Digitaria ciliaris, G: Setaria viridis, H: Echinochloa crus-galli var. crus-galli, I: Avena fatua, J: Alopecurus myosuroides, K: Lolium multiflorum Lam., L: Apera spica-venti., M: Abutilon theophrasti, N: Amaranthus retroflexus, O: Chenopodium album, P: Stellaria media, Q: Galium spurium, R: Veronica persica, a: transplanted Oryza sativa, b: directly sowed Oryza sativa, c: Zea mays, d: Glycine max, e: Triticum aestivum, f: Beta vulgaris ssp. vulgaris, and g: Brassica campestris L. The application herbicide amount (g/ha) means an amount that a concentration is adjusted so that, when an application amount is converted into per hectare (1 ha), the herbicide is applied by the number of grams (g) of the described value.

In a further data set the test system is Monochoria vaginalis. Kind of data set: Test Example 1: herbicidal activity, application before weed generation in submerged conditions. The conditions noted are these: Seventeenth Table.
Source text: as §1

Data set [2] has as its system Echinochloa oryzacola Vasing. The description is as above. The conditions noted are these: Seventeenth Table.
Source text: as §1

For another data set, the system named is Glycine max. Briefly: Test Example 4: effect on crop by application to foliage (diluvial soil, plastic box). The procedure, abridged:
(§2)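 Read-out is a 0–5 visual grade of herbicidal ratio (5: ≥90%, almost withered; 0: ≤5%) taken three weeks after treatment. Compound was applied as a diluted emulsion to stem and leaf parts of 14-day greenhouse-grown plants (25° C. to 30° C.) at rates expressed as g/ha.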

The subject of data set [3] is Beta vulgaris ssp. vulgaris. The description is as above. The procedure, abridged: as §2
For a further data set, the system named is Brassica campestris L. The description is as above. Put shortly: as §2
The test system of data set [4] is directly sowed Oryza sativa. Described as above. The procedure, abridged:
as §2

The next data set has as its system Triticum aestivum. Described as above. Put shortly:
as §2

Another data set deals with Zea mays. The description is as above. The procedure, abridged: as §2
The next data set has as its system Abutilon theophrasti. Briefly: Test Example 4: herbicidal effect by application to foliage (diluvial soil, plastic box). Put shortly:
as §2

The test system of another data set is Alopecurus myosuroides. Described as above. Put shortly: as §2
In the next data set the test system is Avena fatua. The data set is described as above. The procedure, abridged: as §2
The subject of data set [5] is Echinochloa crus-galli var. crus-galli. Described as above. The procedure, abridged:
as §2

Another data set concerns Setaria viridis. Described as above. Put shortly: as §2
In the next data set the test system is Lolium multiflorum Lam. The data set is described as above. Put shortly:
as §2

The next data set concerns Apera spica-venti. Described as above. Put shortly:
as §2

A further data set relates to Galium spurium. The data set is described as above. The procedure, abridged:
as §2

In another data set the test system is Veronica persica. The description is as above. The procedure, abridged: as §2
A further data set deals with Digitaria ciliaris. The data set is described as above. Put shortly: as §2
A further data set has as its system Chenopodium album. Described as above. Put shortly: as §2
In another data set the test system is Scirpus juncoides. Briefly: Test Example 1: herbicidal activity, application before weed generation in submerged conditions. To be noted: Seventeenth Table.
Source text: as §1

Setting [6] is: Application herbicide amount 320 g/ha.
[7] abbreviates: Application herbicide amount 320 g/ha, effect on crop.
Setting [8] is: Application herbicide amount 288 g/ha.
The mark [9] stands for this setting: Application herbicide amount 288 g/ha, foliage application.
[10] abbreviates: application to foliage, application herbicide amount 320 g/ha.

For `CCCSc1nnc2c(C(=O)Nc3nnc(C)o3)ccc(C(F)(F)F)n12` [1-087], the “a: transplanted Oryza sativa (effect on crop grade)” value (shortened to “a: transplanted Oryza sativa”) in data set [1] (setting [6]) is listed as 0 (Herbicidal ratio of 5% or less (almost no effect)). For the same compound, the “C: Monochoria vaginalis (herbicidal effect grade)” value in the data set with Monochoria vaginalis (setting [6]) is 3 (Herbicidal ratio of 40% or more and less than 70%). Besides, in data set [2] (setting [6]), the “A: Echinochloa oryzicola Vasing. (herbicidal effect grade)” value is recorded as 5 (Herbicidal ratio of 90% or more (almost completely withered)). In the data set on Glycine max (setting [7]), the c is 4 (Herbicidal ratio of 70% or more and less than 90%). In addition, the f in data set [3] (setting [7]) is reported as 5 (Herbicidal ratio of 90% or more (almost completely withered)). Also, the g in the data set on Brassica campestris L. (setting [7]) is 4 (Herbicidal ratio of 70% or more and less than 90%). Moreover, in [4] (setting [7]), the d was 4 (Herbicidal ratio of 70% or more and less than 90%). Also, the e in the data set with Triticum aestivum (setting [7]) is 2 (Herbicidal ratio of 20% or more and less than 40%). Further, the b in the data set on Zea mays (setting [7]) is 0 (Herbicidal ratio of 5% or less (almost no effect)). The M with Abutilon theophrasti (setting [6]) was 5 (Herbicidal ratio of 90% or more (almost completely withered)). Further, the J with Alopecurus myosuroides (setting [6]) was 3 (Herbicidal ratio of 40% or more and less than 70%). Besides, in the data set on Avena fatua (setting [6]), the I was 3 (Herbicidal ratio of 40% or more and less than 70%). Further, the H in [5] (setting [6]) is on record as 5 (Herbicidal ratio of 90% or more (almost completely withered)). Moreover, the G in the data set with Setaria viridis (setting [6]) is given as 5 (Herbicidal ratio of 90% or more (almost completely withered)). Also, the K in the data set on Lolium multiflorum Lam. (setting [6]) is 1 (Herbicidal ratio of 5% or more and less than 20%). In the data set with Apera spica-venti. (setting [6]), the L is 2 (Herbicidal ratio of 20% or more and less than 40%). Further, in the data set on Galium spurium (setting [6]), the Q was 1 (Herbicidal ratio of 5% or more and less than 20%). Also, in the data set with Veronica persica (setting [6]), the R is 4 (Herbicidal ratio of 70% or more and less than 90%). In the data set on Digitaria ciliaris (setting [6]), the F is recorded as 5 (Herbicidal ratio of 90% or more (almost completely withered)). The O in the data set with Chenopodium album (setting [6]) is listed as 5 (Herbicidal ratio of 90% or more (almost completely withered)).

Take `C=CCSc1nnc2c(C(=O)Nc3nnco3)ccc(C(F)(F)F)n12` [1-128]: in data set [1] (setting [8]), the “a: transplanted Oryza sativa” value is listed as 0 (Herbicidal ratio of 5% or less (almost no effect)). The “B: Scirpus juncoides (herbicidal effect grade)” value with Scirpus juncoides (setting [8]) was 4 (Herbicidal ratio of 70% or more and less than 90%). The “C: Monochoria vaginalis (herbicidal effect grade)” value with Monochoria vaginalis (setting [8]) is 2 (Herbicidal ratio of 20% or more and less than 40%). In addition, the “A: Echinochloa oryzicola Vasing. (herbicidal effect grade)” value in data set [2] (setting [8]) is listed as 5 (Herbicidal ratio of 90% or more (almost completely withered)). Moreover, in the data set on Glycine max (setting [9]), the “d (Glycine max) effect on crop grade” value was 3 (Herbicidal ratio of 40% or more and less than 70%). In data set [3] (setting [9]), the “f (Beta vulgaris ssp. vulgaris) effect on crop grade” value is 5 (Herbicidal ratio of 90% or more (almost completely withered)). The “g (Brassica campestris L.) effect on crop grade” value in the data set on Brassica campestris L. (setting [9]) was 3 (Herbicidal ratio of 40% or more and less than 70%). Also, in the data set on Triticum aestivum (setting [9]), the “e (Triticum aestivum) effect on crop grade” value is 1 (Herbicidal ratio of 5% or more and less than 20%). Also, in the data set on Zea mays (setting [9]), the “c (Zea mays) effect on crop grade” value is reported as 0 (Herbicidal ratio of 5% or less (almost no effect)). For the same compound, the “M (Abutilon theophrasti) herbicidal effect grade” value in the data set with Abutilon theophrasti (setting [9]) is 3 (Herbicidal ratio of 40% or more and less than 70%). The “J (Alopecurus myosuroides) herbicidal effect grade” value in the data set with Alopecurus myosuroides (setting [9]) is 1 (Herbicidal ratio of 5% or more and less than 20%). Also, the “I (Avena fatua) herbicidal effect grade” value in the data set on Avena fatua (setting [9]) is listed as 0 (Herbicidal ratio of 5% or less (almost no effect)). Moreover, the “H (Echinochloa crus-galli var. crus-galli) herbicidal effect grade” value in data set [5] (setting [9]) is 5 (Herbicidal ratio of 90% or more (almost completely withered)). Also, the “G (Setaria viridis) herbicidal effect grade” value with Setaria viridis (setting [9]) is 2 (Herbicidal ratio of 20% or more and less than 40%). For the same compound, the “K (Lolium multiflorum Lam.) herbicidal effect grade” value in the data set on Lolium multiflorum Lam. (setting [9]) was 1 (Herbicidal ratio of 5% or more and less than 20%). Besides, the “L (Apera spica-venti.) herbicidal effect grade” value in the data set on Apera spica-venti. (setting [9]) was 1 (Herbicidal ratio of 5% or more and less than 20%). The “Q (Galium spurium) herbicidal effect grade” value in the data set on Galium spurium (setting [9]) was 1 (Herbicidal ratio of 5% or more and less than 20%). In the data set on Veronica persica (setting [9]), the “R (Veronica persica) herbicidal effect grade” value was 5 (Herbicidal ratio of 90% or more (almost completely withered)). Besides, the “F (Digitaria ciliaris) herbicidal effect grade” value in the data set on Digitaria ciliaris (setting [9]) is recorded as 5 (Herbicidal ratio of 90% or more (almost completely withered)). Further, the “O (Chenopodium album) herbicidal effect grade” value in the data set with Chenopodium album (setting [9]) is 5 (Herbicidal ratio of 90% or more (almost completely withered)).

On to `Cc1nnc(NC(=O)c2ccc(C(F)(F)F)n3c(C4CC4)nnc23)o1` [1-010], for which, in data set [1] (setting [6]), the “a: transplanted Oryza sativa” value is listed as 0 (Herbicidal ratio of 5% or less (almost no effect)). Moreover, the “B: Scirpus juncoides (herbicidal effect grade)” value with Scirpus juncoides (setting [6]) is 3 (Herbicidal ratio of 40% or more and less than 70%). The “A: Echinochloa oryzicola Vasing. (herbicidal effect grade)” value in data set [2] (setting [6]) is 5 (Herbicidal ratio of 90% or more (almost completely withered)). In addition, in the data set on Glycine max (setting [10]), the “c (Glycine max) effect on crop” value was 1 (Herbicidal ratio of 5% or more and less than 20%). For the same compound, in [3] (setting [10]), the “f (Beta vulgaris ssp. vulgaris) effect on crop” value is recorded as 5 (Herbicidal ratio of 90% or more (almost completely withered)). The “g (Brassica campestris L.) effect on crop” value with Brassica campestris L. (setting [10]) is 3 (Herbicidal ratio of 40% or more and less than 70%). In addition, the “d (directly sowed Oryza sativa) effect on crop” value in data set [4] (setting [10]) was 4 (Herbicidal ratio of 70% or more and less than 90%). For the same compound, the “e (Triticum aestivum) effect on crop” value with Triticum aestivum (setting [10]) is 1 (Herbicidal ratio of 5% or more and less than 20%). Besides, the “b (Zea mays) effect on crop” value with Zea mays (setting [10]) is 0 (Herbicidal ratio of 5% or less (almost no effect)). Also, the “M (Abutilon theophrasti) herbicidal effect” value with Abutilon theophrasti (setting [10]) is reported as 5 (Herbicidal ratio of 90% or more (almost completely withered)). Also, the “J (Alopecurus myosuroides) herbicidal effect” value in the data set with Alopecurus myosuroides (setting [10]) is 2 (Herbicidal ratio of 20% or more and less than 40%). In addition, in the data set with Avena fatua (setting [10]), the “I (Avena fatua) herbicidal effect” value is 3 (Herbicidal ratio of 40% or more and less than 70%). In addition, in [5] (setting [10]), the “H (Echinochloa crus-galli var. crus-galli) herbicidal effect” value was 4 (Herbicidal ratio of 70% or more and less than 90%). The “G (Setaria viridis) herbicidal effect” value in the data set on Setaria viridis (setting [10]) was 3 (Herbicidal ratio of 40% or more and less than 70%). Further, in the data set on Lolium multiflorum Lam. (setting [10]), the “K (Lolium multiflorum Lam.) herbicidal effect” value is 1 (Herbicidal ratio of 5% or more and less than 20%). In addition, the “L (Apera spica-venti.) herbicidal effect” value with Apera spica-venti. (setting [10]) is 2 (Herbicidal ratio of 20% or more and less than 40%). The “Q (Galium spurium) herbicidal effect” value with Galium spurium (setting [10]) was 1 (Herbicidal ratio of 5% or more and less than 20%). The “R (Veronica persica) herbicidal effect” value with Veronica persica (setting [10]) is listed as 5 (Herbicidal ratio of 90% or more (almost completely withered)). In addition, in the data set with Digitaria ciliaris (setting [10]), the “F (Digitaria ciliaris) herbicidal effect” value was 3 (Herbicidal ratio of 40% or more and less than 70%). The “O (Chenopodium album) herbicidal effect” value in the data set on Chenopodium album (setting [10]) is recorded as 5 (Herbicidal ratio of 90% or more (almost completely withered)).

(Values after patent publication US9708314B2, “Heterocyclic amide compound” (NISSAN CHEMICAL INDUSTRIES, LTD., priority 2013, dated 2017).)
